Data: US20230121086A1, “RORgT INHIBITOR, PREPARATION METHOD THEREOF AND USE THEREOF” (SUNSHINE LAKE PHARMA CO., LTD., priority 2020, published 2023)
Marks after values point to notes of the source that are not given here.

What was measured:
rat liver microsomes = test: Stability in rat liver microsomes; format: in vitro ADME; conditions: 0.5 mg protein/mL, 1.5 μM compound, 37° C., NADPH
[1] = system: inflammatory factor IL-17; test: IMQ-induced mouse psoriasis model, IL-17 in the ear; format: in vivo, c57bl/6 mice; conditions: for Inhibition rate (IL-17 in the ear) / IL-17 Concentration (pg/μg protein): 90 mg/kg; for IL-17 Concentration (pg/μg protein): ear homogenate supernatant, model group 29.78, normal group 0.00; for Effect on the secretion of IL-17 in the ear of mice compared with the model group: P<0.05
[2] = system: IMQ-induced mouse psoriasis model; test: IMQ-induced mouse psoriasis model, ear weight; format: in vivo, c57bl/6 mice; conditions: for Effect on the ear weight of mice compared with the model group: P<0.05
[3] = system: inflammatory factor IL-17; test: LPS-induced mouse blood inflammatory factor IL-17 model; format: in vivo, BALB/c mice
[4] = Pharmacokinetic evaluation in ICR mice; format: in vivo; conditions: mouse, plasma, po; for AUC(0-t) / Cmax / half-life: 5 mg/kg; for bioavailability: p.o. 5 mg/kg vs i.v. 1 mg/kg, read-out: Oral bioavailability (F)
RORγt = target: T1, RORγt (Homo sapiens, UniProt P51449); test: Fluorescence resonance energy transfer (FRET) test, inhibitory activity of RORγt; format: biochemical; conditions: FRET, B-RORγt LBD / Biotin-SRC1; read-out: IC50
T1 construct: […]
T1 sequence (P51449 269-508 limits assumed): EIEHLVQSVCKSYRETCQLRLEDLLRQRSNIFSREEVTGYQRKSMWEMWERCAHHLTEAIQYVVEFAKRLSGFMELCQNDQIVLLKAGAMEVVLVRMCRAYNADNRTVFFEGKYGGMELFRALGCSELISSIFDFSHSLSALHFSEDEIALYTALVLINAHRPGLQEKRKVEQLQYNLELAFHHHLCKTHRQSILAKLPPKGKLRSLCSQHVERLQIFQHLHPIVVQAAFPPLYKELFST

[5] = Stability in human liver microsomes; format: in vitro ADME; conditions: for half-life at 1.5 μM: pH 7.4, 0.5 mg protein/mL, 1.5 μM compound, 37° C., NADPH, read-out: Human Half-life t1/2; for CLint scaled at 1.5 μM: pH 7.4, intrinsic hepatic clearance inferred from microsomal incubation, read-out: Human Clearance rate
[6] = Stability in rat liver microsomes; format: in vitro ADME; conditions: rat, liver microsomes, pH 7.4
[7] = 90 mg/kg, oral gavage, 10 days modeling, model group 28.12, normal group 13.03
[8] = Table 7, 30 mg/kg, plasma 4 hours after LPS, model group 174.69
[9] = Table 8, 15 mg/kg, plasma 4 hours after LPS, model group 81.33

Rat Half-life t1/2 (min) (rat liver microsomes) | AUC(0-t) [4] [µM·h] | Cmax [4] [µM] | half-life [4] [h] | bioavailability [4] [%] | IC50 (RORγt) [nM] | half-life at 1.5 μM [5] [h] | CLint scaled at 1.5 μM [5] [mL/min/kg] | SMILES | Inhibition rate (IL-17 in the ear) [1] [%] | IL-17 Concentration (pg/μg protein) [1] | Effect on the secretion of IL-17 in the ear of mice compared with the model group [1] | Inhibition rate % (ear weight) ([2]; 90 mg/kg, oral gavage) [%] | Average ear weight (mg) [2, 7] | Effect on the ear weight of mice compared with the model group [2] | Effect on LPS-induced mouse blood inflammatory factor IL-17 [3] | Inhibition rate % ([3]; Table 7, 30 mg/kg) [%] | IL-17 (pg/ml) [3, 8] | Inhibition rate % ([3]; Table 8, 15 mg/kg) [%] | also measured
Not metabolized | 47.2 | 3.33 | 13.2 | 91 | 11 |  |  | CCS(=O)(=O)c1ccc([C@H](CC#N)NC(=O)c2ccc(N3CC(Oc4ccc(OC(F)(F)F)cc4)C[C@H]3COC(F)F)cc2)cc1 (stereo in doubt) [Example 64, N-((S)-2-cyano-1-(4-(ethylsulfonyl)phenyl)ethyl)-4-((2S,4S)-2-((difluoromethoxy)methyl)-4-(4-(trifluoromethoxy)phenoxy)pyrrolidin-1-yl)benzamide] | 72.47 | 8.20 ** pg/μg protein | significantly reduce | 22 | 24.84* mg | significantly reduce | significantly reduce | 65 | 58.48 ** pg/ml |  | 
Not metabolized | 78 | 7 | 7.9 | 82 |  | 1.34 | 21.6 | CCS(=O)(=O)c1ccc([C@H](CC#N)NC(=O)c2ccc(N3CC(Oc4ccc(C(F)(F)F)cn4)C[C@H]3COC(F)F)cc2)cc1 (stereo in doubt) [Example 65, N-((S)-2-cyano-1-(4-(ethylsulfonyl)phenyl)ethyl)-4-((2S,4S)-2-((difluoromethoxy)methyl)-4-((5-(trifluoromethyl)pyridine-2-yl)oxy)pyrrolidin-1-yl)benzamide] |  |  |  |  |  |  | significantly reduce | 63 | 61.71 ** pg/ml |  | 
Not metabolized | 37 | 4.8 | 3.6 | 80 | 9 | 3.98 | 7.3 | CCS(=O)(=O)c1ccc([C@H](CC#N)NC(=O)c2ccc(N3C[C@@H](Oc4ccc(OC(F)F)cc4)C[C@H]3COC(F)F)cc2)cc1 [Example 22, N-((S)-2-cyano-1-(4-(ethylsulfonyl)phenyl)ethyl)-4-((2S,4S)-2-((difluoromethoxy)methyl)-4-(4-(difluoromethoxy)phenoxy)pyrrolidin-1-yl)benzamide] | 40.08 | 17.85 * pg/μg protein | significantly reduce | 2 |  |  | a certain tendency to inhibit |  |  | 10.55 | Average ear weight [2, 7]: 28.12 mg; IL-17 [3, 9]: 72.12 pg/mL
 | 23.5 | 2.4 | 11.1 | 66 | 10 | 3.5 | 8.3 | CCS(=O)(=O)c1ccc([C@H](CC#N)NC(=O)c2ccc(N3C[C@@H](Oc4ccc(C(F)(F)F)cc4)C[C@H]3COC(F)F)cc2)cc1 [Example 47, N—((S)-2-cyano-1-(4-(ethylsulfonyl)phenyl)ethyl)-4-((2S,4S)-2-((difluoromethoxy)methyl)-4-(4-(trifluoromethyl)phenoxy)pyrrolidin-1-yl)benzamide] | 55.38 | 13.29 ** pg/μg protein | significantly reduce | 19 | 25.20* mg | significantly reduce | significantly reduce | 51 | 83.18 * pg/ml | 28.21 | half-life at 1.5 μM ([6]; 0.5 mg protein/mL, 1.5 μM compound, 37° C., NADPH, read-out: Rat Half-life t1/2): 22.4 h; CLint scaled at 1.5 μM ([6]; intrinsic hepatic clearance inferred from microsomal incubation, read-out: Rat Clearance rate): 1.9 mL/min/kg; Inhibition rate % ([3]; Table 6, 15 mg/kg): 25.22%; IL-17 (pg/ml) ([3]; Table 6, 15 mg/kg, plasma 4 hours after LPS, model group 141.35): 104.98 * pg/ml; IL-17 (pg/ml) [3, 9]: 56.69 ** pg/ml
